pIC50: −log10 of the molar value.
Assays:
[1] = target: T1, ER (Homo sapiens, UniProt P03372); assay: In-cell western blot analysis, relative ER percentage (compounds B1-B126); type: cell-based; settings: ER degradation, 16 hours, read-out: ICW DC50
T1 construct: endogenous in cells; probably T47D or MCF-7
T1 sequence (P03372 1-595): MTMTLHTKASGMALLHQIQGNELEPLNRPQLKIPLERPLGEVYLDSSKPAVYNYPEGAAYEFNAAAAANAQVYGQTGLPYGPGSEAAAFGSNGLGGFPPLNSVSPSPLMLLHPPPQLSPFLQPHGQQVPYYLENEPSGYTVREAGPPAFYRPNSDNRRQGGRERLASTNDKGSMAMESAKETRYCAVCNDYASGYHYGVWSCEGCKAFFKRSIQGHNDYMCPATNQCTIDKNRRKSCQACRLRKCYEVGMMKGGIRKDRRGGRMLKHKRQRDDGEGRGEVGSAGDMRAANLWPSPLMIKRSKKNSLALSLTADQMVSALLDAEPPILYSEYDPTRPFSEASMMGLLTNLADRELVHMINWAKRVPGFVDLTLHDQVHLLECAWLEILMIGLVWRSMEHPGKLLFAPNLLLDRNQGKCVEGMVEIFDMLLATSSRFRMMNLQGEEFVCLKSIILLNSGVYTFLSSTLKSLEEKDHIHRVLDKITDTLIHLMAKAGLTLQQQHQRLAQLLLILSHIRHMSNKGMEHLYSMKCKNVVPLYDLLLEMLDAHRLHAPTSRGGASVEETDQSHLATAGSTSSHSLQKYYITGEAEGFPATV
Description: In-cell western blot analysis. Cells are seeded in multi-well plates (e.g., at 40,000 or 10,000 cells/well). Diluted compounds at certain concentration are added (final 0.5% DMSO) and cells are incubated for a certain period of time (e.g., 16 hours). Formaldehyde (e.g., PBS: FA=9:1) is added and followed by washing with PBS. The cells are blocked with Licor blocking buffer (Li-Cor). The relative ER percentage in treated cells are obtained by comparing the values of treated wells to those in untreated and DMSO-treated wells as 100%.
In-cell western blot analysis. a. seed cells in black-sided/clear bottom 96- or 384-well plates at 40,000 or 10,000 cells/well, overnight; b. add diluted compounds (final 0.5% DMSO), 16 hours. […] RT 2h, gentle shaking. Negative control: cells plus secondary antibodies (no primary antibodies); e. wash×4 with PBS +0.05-0.1% Tween 20, gentel shaking; f. anti-rabbit-680 and anti-mouse-800 (both 1:1000 in LiCor block+0.05% Tween20, RT 1h, gentle shaking, no light. LI-COR: 0.2% to reduce background; g. wash×4 with PBS+0.05% Tween 20, gental shaking; h. add 100 μL or 25 μL of PBS to each well and read on CLX plate reader. The relative ER percentage in treated cells were obtained by comparing the values of treated wells to those in untreated and DMSO-treated wells as 100%.

[2] = Cell growth assay, WST-8 (compounds B1-B126); type: cell-based; settings: 96 h; T47D cell line, WST-8, 4 days; read-out: Cell growth inhibition in T47D cell line IC50
Description: Cell Growth Assay. The cells are seeded at certain concentration (e.g., at 1500/well) in multi-well plates overnight. Cells are subsequently treated with the compounds. A certain period of time (e.g., 4 days) after the compound treatment, 10% WST-8 reagent is added to the culture medium and incubate under certain condiction (e.g., in a CO2 incubator at 37° C. for 2.5 hours). The absorbance is measured on each sample using a microplate reader at certain wavelength (e.g., 450 nm). The relative absorbance is calculated against the vehicle control from three individually repeats.
Cell Growth Assay. The cells were seeded at 1500/well in 96 well plates overnight. One day after the seeding, they were treated with indicated doses of compounds respectively. 4 days after the compound treatment, 10% WST-8 reagent was added to the culture medium and incubate in a CO2 incubator at 37° C. for 2.5 hours. Before reading, the plate was mixed gently on an orbital shaker for one minute to ensure homogeneous distribution of color. The absorbance was measured of each sample using a microplate reader at a wavelength of 450 nm. The relative absorbance was calculated against the vehicle control from three individually repeats.

Row | DC50 [1] | SMILES | pIC50 [2]
1 | < 10 nM | COc1cc(N2CCC3(CCN(C(=O)CN4Cc5cc6c(cc5C4)C(=O)N(C4CCC(=O)NC4=O)C6)CC3)CC2)ccc1[C@@H]1c2ccc3[nH]ncc3c2C[C@@H](C)N1CC(F)F (stereo partly drawn) [Compound B69, 3-(6-(2-(9-(4-((6S,8R)-7-(2,2-difluoroethyl)-8-methyl-6,7,8,9-tetrahydro-3H-pyrazolo[4,3-f]isoquinolin-6-yl)-3-methoxyphenyl)-3,9-diazaspiro[5.5]undecan-3-yl)-2-oxoethyl)-1-oxo-3,5,6,7-tetrahydropyrrolo[3,4-f]isoindol-2(1H)-yl)piperidine-2,6-dione] | > 9.00
2 | < 10 nM | C[C@@H]1Cc2c(ccc3[nH]ncc23)[C@@H](c2ccc(N3CCC4(CC3)CC(CN3CCN5c6cc7c(cc6N(C)C[C@@H]5C3)C(=O)N(C3CCC(=O)NC3=O)C7)C4)cn2)N1CC(F)(F)F (stereo partly drawn) [Compound B61, 3-((S)-6-methyl-3-((7-(6-((6S,8R)-8-methyl-7-(2,2,2-trifluoroethyl)-6,7,8,9-tetrahydro-3H-pyrazolo[4,3-f]isoquinolin-6-yl)pyridin-3-yl)-7-azaspiro[3.5]nonan-2-yl)methyl)-8-oxo-2,3,4,4a,5,6,8,10-octahydropyrazino[1,2-a]pyrrolo[3,4-g]quinoxalin-9(1H)-yl)piperidine-2,6-dione] | > 9.00
3 | 10 to 100 nM | C[C@@H]1Cc2c(ccc3[nH]ncc23)[C@@H](c2c(F)cc(N3CCC(CN4CCN5c6c(ccc7c6CN(C6CCC(=O)NC6=O)C7=O)OC[C@@H]5C4)CC3)cc2F)N1CC(F)F (stereo partly drawn) [Compound B99, 3-((S)-9-((1-(4-((6S,8R)-7-(2,2-difluoroethyl)-8-methyl-6,7,8,9-tetrahydro-3H-pyrazolo[4,3-f]isoquinolin-6-yl)-3,5-difluorophenyl)piperidin-4-yl)methyl)-3-oxo-1,3,7,7a,8,9,10,11-octahydro-2H-pyrazino[1′,2′:4,5][1,4]oxazino[3,2-e]isoindol-2-yl)piperidine-2,6-dione] | < 8.00
4 | < 10 nM | COc1c2c(cc3c1CN(C1CCC(=O)NC1=O)C3=O)CN(CC(=O)N1CCC3(CC1)CCN(c1cc(F)c([C@@H]4c5ccc6[nH]ncc6c5C[C@@H](C)N4CC(F)F)c(F)c1)CC3)C2 (stereo partly drawn) [Compound B72, 3-(6-(2-(9-(4-((6S,8R)-7-(2,2-difluoroethyl)-8-methyl-6,7,8,9-tetrahydro-3H-pyrazolo[4,3-f]isoquinolin-6-yl)-3,5-difluorophenyl)-3,9-diazaspiro[5.5]undecan-3-yl)-2-oxoethyl)-4-methoxy-1-oxo-3,5,6,7-tetrahydropyrrolo[3,4-f]isoindol-2(1H)-yl)piperidine-2,6-dione] | 8.00 to 9.00
5 | 10 to 100 nM | COc1cc(N2CCC(N3CC(N4CCN5c6cc7c(cc6OC[C@@H]5C4)C(=O)N(C4CCC(=O)NC4=O)C7)C3)CC2)ccc1[C@@H]1c2ccc3[nH]ncc3c2C[C@@H](C)N1CC(F)F (stereo partly drawn) [Compound B53, 3-((S)-3-(1-(1-(4-((6S,8R)-7-(2,2-difluoroethyl)-8-methyl-6,7,8,9-tetrahydro-3H-pyrazolo[4,3-f]isoquinolin-6-yl)-3-methoxyphenyl)piperidin-4-yl)azetidin-3-yl)-8-oxo-1,2,3,4,4a,5,8,10-octahydro-9H-pyrazino[1′,2′:4,5][1,4]oxazino[2,3-f]isoindol-9-yl)piperidine-2,6-dione] | > 9.00
6 | > 100 nM | C[C@@H]1Cc2c(ccc3[nH]ncc23)[C@@H](c2ccc(N3CCC4(CC3)CC(CN3CCN5c6ccc(C(=O)N(C)C7CCC(=O)NC7=O)nc6OC[C@H]5C3)C4)cn2)N1CC(F)(F)F (stereo partly drawn) [Compound B92, (4aR)-N-(2,6-dioxopiperidin-3-yl)-N-methyl-3-((7-(6-((6S,8R)-8-methyl-7-(2,2,2-trifluoroethyl)-6,7,8,9-tetrahydro-3H-pyrazolo[4,3-f]isoquinolin-6-yl)pyridin-3-yl)-7-azaspiro[3.5]nonan-2-yl)methyl)-1,2,3,4,4a,5-hexahydropyrazino[1,2-d]pyrido[2,3-b][1,4]oxazine-8-carboxamide] | < 8.00
7 | < 10 nM | C[C@@H]1Cc2c(ccc3[nH]ncc23)[C@@H](c2c(F)cc(N3CCC4(CN(CC(=O)N5CCN6c7cc8c(cc7OC[C@@H]6C5)C(=O)N(C5CCC(=O)NC5=O)C8)C4)C3)cc2F)N1CC(F)F (stereo partly drawn) [Compound B41, 3-((S)-3-(2-(6-(4-((6S,8R)-7-(2,2-difluoroethyl)-8-methyl-6,7,8,9-tetrahydro-3H-pyrazolo[4,3-f]isoquinolin-6-yl)-3,5-difluorophenyl)-2,6-diazaspiro[3.4]octan-2-yl)acetyl)-8-oxo-1,2,3,4,4a,5,8,10-octahydro-9H-pyrazino[1′,2′:4,5][1,4]oxazino[2,3-f]isoindol-9-yl)piperidine-2,6-dione] | > 9.00
8 | < 10 nM | C[C@@H]1Cc2c(ccc3[nH]ncc23)[C@@H](c2ccc(N3CC4(CCC(CN5CCN6c7cc8c(cc7OC[C@@H]6C5)C(=O)N(C5CCC(=O)NC5=O)C8)CC4)C3)cn2)N1CC(F)F (stereo partly drawn) [Compound B88, 3-((S)-3-((2-(6-((6S,8R)-7-(2,2-difluoroethyl)-8-methyl-6,7,8,9-tetrahydro-3H-pyrazolo[4,3-f]isoquinolin-6-yl)pyridin-3-yl)-2-azaspiro[3.5]nonan-7-yl)methyl)-8-oxo-1,2,3,4,4a,5,8,10-octahydro-9H-pyrazino[1′,2′:4,5][1,4]oxazino[2,3-f]isoindol-9-yl)piperidine-2,6-dione] | 8.00 to 9.00
9 | < 10 nM | C[C@@H]1Cc2c(ccc3[nH]ncc23)[C@@H](c2c(F)cc(N3CCC(CN4CCN5c6ccc7c(c6N(C)C[C@@H]5C4)CN(C4CCC(=O)NC4=O)C7=O)CC3)cc2F)N1CC(F)F (stereo partly drawn) [Compound B30, 3-((S)-7-((1-(4-((6S,8R)-7-(2,2-difluoroethyl)-8-methyl-6,7,8,9-tetrahydro-3H-pyrazolo[4,3-f]isoquinolin-6-yl)-3,5-difluorophenyl)piperidin-4-yl)methyl)-4-methyl-1-oxo-3,4,5,5a,6,7,8,9-octahydropyrazino[1,2-a]pyrrolo[3,4-f]quinoxalin-2(1H)-yl)piperidine-2,6-dione] | 8.00 to 9.00
10 | < 10 nM | C[C@@H]1Cc2c(ccc3[nH]ncc23)[C@@H](c2c(F)cc(N3CC4(CCN(CC(=O)N5CCN6c7cc8c(cc7OC[C@@H]6C5)C(=O)N(C5CCC(=O)NC5=O)C8)CC4)C3)cc2F)N1CC(F)F (stereo partly drawn) [Compound B33, 3-((S)-3-(2-(2-(4-((6S,8R)-7-(2,2-difluoroethyl)-8-methyl-6,7,8,9-tetrahydro-3H-pyrazolo[4,3-f]isoquinolin-6-yl)-3,5-difluorophenyl)-2,7-diazaspiro[3.5]nonan-7-yl)acetyl)-8-oxo-1,2,3,4,4a,5,8,10-octahydro-9H-pyrazino[1′,2′:4,5][1,4]oxazino[2,3-f]isoindol-9-yl)piperidine-2,6-dione] | > 9.00
11 | < 10 nM | C[C@@H]1Cc2c(ccc3[nH]ncc23)[C@@H](c2c(F)cc(N3CC4(CCN(CC(=O)N5CCN6c7cc8c(cc7OC[C@@H]6C5)C(=O)N(C5CCC(=O)NC5=O)C8)C4)C3)cc2F)N1CC(F)F (stereo partly drawn) [Compound B40, 3-((S)-3-(2-(2-(4-((6S,8R)-7-(2,2-difluoroethyl)-8-methyl-6,7,8,9-tetrahydro-3H-pyrazolo[4,3-f]isoquinolin-6-yl)-3,5-difluorophenyl)-2,6-diazaspiro[3.4]octan-6-yl)acetyl)-8-oxo-1,2,3,4,4a,5,8,10-octahydro-9H-pyrazino[1′,2′:4,5][1,4]oxazino[2,3-f]isoindol-9-yl)piperidine-2,6-dione] | > 9.00

From patent publication US20260256925A1, “INDAZOLE DERIVATIVES AS ESTROGEN RECEPTOR DEGRADERS” (REGENTS OF THE UNIVERSITY OF MICHIGAN, priority 2022, published 2026)
